Key:
[1] = test system: F420-dependent NADP oxidoreductase enzyme from M. smithii; conditions: compared to the natural ligand F420; cited from earlier work
Archaea = experiment: Laboratory Study 5: methane concentration in control and test samples with AMRs
Protocol: Use of diallyl sulfide, which may be considered a synthetic garlic oil (GOS), was evaluated for its ability to control Archaea compared to the effects of other potential AMRs such as natural/pressed Garlic Oil (GO) and dehydrated Garlic Powder (GP). Control samples with and without contaminants were captured along with test samples that included contaminants and different concentrations (250 ppm and 500 ppm) of different AMRs (GO, GOS and GP). The concentration of methane in each of the samples was measured at 0, 9, 16 and 23 days.

| Structure (SMILES) | affinity for the model protein [1] | length and magnitude of antimethanogenic responses (Archaea; 500 ppm lasting longer than 250 ppm) | control response in terms of methane production (Archaea; after 23 days incubation, 250 ppm and 500 ppm) |
| --- | --- | --- | --- |
| CC[C@H](C)C(=O)O[C@H]1C[C@@H](C)C=C2C=C[C@H](C)[C@H](CC[C@@H]3C[C@@H](O)CC(=O)O3)[C@H]21 [lovastatin] | more affinity |  |  |
| C=CCSCC=C [GOS, diallyl sulfide] |  | concentration dependent | best control response |
| CC[C@H](C)C(=O)O[C@H]1CCC=C2C=C[C@H](C)[C@H](CC[C@@H]3C[C@@H](O)CC(=O)O3)[C@H]21 [compactin] | more affinity |  |  |

From patent publication US10729132B2, “Xylophage control using antimethanogenic reagents” (Environmental Intellectual Property, Inc, priority 2015, dated 2020)
